Experimental data: PMC6481325, “Novel N,N-dialkyl cyanocinnamic acids as monocarboxylate transporter 1 and 4 inhibitors” (Oncotarget, 2019)

Assays:
MDA-MB-231 cells = assay: SRB cell proliferation inhibition assay, MDA-MB-231; type: cell-based; settings: 72 hours, average ± sem
Description: (§1) MDA-MB-231 cells (ATCC, 2015) were grown in DMEM supplemented with 10% FBS and penicillin-streptomycin (50 U/ml, 50 μg/ml, Invitrogen). WiDr cells (ATCC, 2017) were cultured in MEM medium supplemented with 10% FBS (Atlanta Biologicals) and penicillin-streptomycin (50 U/ml, 50 μg/ml). For in vitro experiments, after seeding, cells were incubated at 37°C in 5% CO2 for 18–24 hours before the addition of test compounds.
(§2) Cells (5 × 10^4 cells/mL) were cultured in 48-well plates. Test compounds were dissolved in DMSO (final concentration of DMSO is <0.1%) and were added to culture wells at various concentrations in replicate and incubated for 72 hours. Growth medium was removed and the wells were washed with PBS and dried. SRB (0.5% in 1% acetic acid) was added to the wells and incubated for 30–45 minutes. The wells were washed 3 times with 1% acetic acid and dried. The cellular protein was dissolved in trizma base (10 mM, pH 10.2) and absorbance was recorded at 540 nm. Percent survival was calculated using the formula %Survival=Abstest compound/Abscontrol×100 .

WiDr cells = assay: SRB cell proliferation inhibition assay, WiDr; type: cell-based; settings: Homo sapiens, 72 hours, average ± sem
Description: as §1, §2

[1] = system: MCT1 expressing WiDr cells; assay: Seahorse XFe96 mitochondrial stress test (OCR), WiDr; type: cell-based; settings: 30 μM
Description: (§3) Extracellular acidification rates (ECAR) and oxygen consumption rates (OCR) were recorded in real-time for glycolysis stress test (GST) and mitochondrial stress test (MST), respectively, using Agilent Seahorse XFe96® analyzer.

[2] = system: MCT4 expressing MDA-MB-231 cells; assay: Seahorse XFe96 mitochondrial stress test (OCR), MDA-MB-231; type: cell-based; settings: 30 μM
Description: as §3

[3] = parameters: method as in ref 32 = [32]; PMID 26005533; doi:10.1021/acsmedchemlett.5b00049; 32 Gurrapu S Jonnalagadda SK Alam MA Nelson GL Sneve MG Drewes LR Mereddy VR Monocarboxylate transporter 1 inhibitors as potential anticancer agents ACS Med Chem Lett 2015 6 558 61 10.1021/acsmedcheml; settings: in vivo; cited from earlier work

SRB IC50 (MDA-MB-231 cells): did not show any activity
IC50 (MDA-MB-231 cells; Homo sapiens): > 25 µM
Structure (SMILES): COc1cc(N(c2ccccc2)c2ccccc2)ccc1/C=C(\C#N)C(=O)O [Phenyl (9)]
IC50 (WiDr cells): 4.2 ± 0.4 µM
ATP production (MST, OCR) [1]: significantly decreased
maximal respiration (MST, OCR) [1]: significantly decreased
proton leak (MST, OCR) [1]: significantly increased proton leak compared to compound 3
spare respiratory capacity (MST, OCR) [1]: significantly decreased
ATP production (MST, OCR) [2]: significantly decreased
maximal respiration (MST, OCR) [2]: significantly decreased
proton leak (MST, OCR) [2]: significantly increased
spare respiratory capacity (MST, OCR) [2]: significantly decreased
elimination from plasma [3]: most of the compound was eliminated in less than one hour
time of peak plasma concentration [3]: 15 min
